From PubChem BioAssay AID328 (DTP/NCI, 2004)
“And” between values parts separate entries of the source, which are not always exact repeats. Equal values may be shown once. Inconclusive results and toxic doses are left out.

Tested on: BDF1 mice, P388 leukemia ip, median survival T/C
Test: NCI In Vivo Anticancer Drug Screen. Data for tumor model P388 Leukemia (intraperitoneal) in B6D2F1 (BDF1) mice
Conditions: endpoint: median survival time, higher = longer survival
How it was run: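 Steps: implant the tumour, treat one group with compound and another with vehicle, record survival, then divide treated by control.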

[1] = dose: 25.0 mg/kg/injection, schedule: Q01DX009 (ip), vehicle: saline
[2] = dose: 50.0 mg/kg/injection, schedule: Q01DX009 (ip), vehicle: saline
[3] = dose: 100.0 mg/kg/injection, schedule: Q01DX001 (ip), vehicle: saline
[4] = dose: 100.0 mg/kg/injection, schedule: Q01DX009 (ip), vehicle: saline
[5] = dose: 200.0 mg/kg/injection, schedule: Q01DX001 (ip), vehicle: saline
[6] = dose: 200.0 mg/kg/injection, schedule: Q01DX009 (ip), vehicle: saline
[7] = dose: 25.0 mg/kg/injection, schedule: Q04DX003 (ip), vehicle: saline
[8] = dose: 100.0 mg/kg/injection, schedule: Q01DX009 (ip), vehicle: Klucel (hydroxypropylcellulose) (HPC)
[9] = dose: 100.0 mg/kg/injection, schedule: Q04DX003 (ip), vehicle: Klucel (hydroxypropylcellulose) (HPC)
[10] = dose: 200.0 mg/kg/injection, schedule: Q01DX009 (ip), vehicle: Klucel (hydroxypropylcellulose) (HPC)
[11] = dose: 50.0 mg/kg/injection, schedule: Q01DX009 (ip), vehicle: saline with Tween-80
[12] = dose: 100.0 mg/kg/injection, schedule: Q01DX009 (ip), vehicle: saline with Tween-80
[13] = dose: 200.0 mg/kg/injection, schedule: Q01DX009 (ip), vehicle: saline with Tween-80
[14] = dose: 200.0 mg/kg/injection, schedule: Q01DX001 (ip), vehicle: Klucel (hydroxypropylcellulose) (HPC)
[15] = dose: 100.0 mg/kg/injection, schedule: Q04DX003 (ip), vehicle: saline with Tween-80
[16] = dose: 200.0 mg/kg/injection, schedule: Q04DX003 (ip), vehicle: saline with Tween-80
[17] = dose: 400.0 mg/kg/injection, schedule: Q04DX003 (ip), vehicle: saline with Tween-80
[18] = dose: 400.0 mg/kg/injection, schedule: Q01DX009 (ip), vehicle: saline with Tween-80

## O=S(=O)(O)c1ccc(CCCCCCl)cc1
[1]
  T/C: 109 % of control
[2]
  T/C: 100 % of control
[3]
  T/C: 110 % of control
[4]
  T/C: 104 % of control and 110 % of control
[5]
  T/C: 90 % of control
[6]
  T/C: 100 % of control
dose: 400.0 mg/kg/injection, schedule: Q01DX001 (ip), vehicle: saline
  T/C: 90 % of control
dose: 400.0 mg/kg/injection, schedule: Q01DX009 (ip), vehicle: saline
  T/C: 110 % of control

## CCN1CC=CCC1
[1]
  T/C: 95 % of control
[7]
  T/C: 95 % of control and 104 % of control and 118 % of control
dose: 35.0 mg/kg/injection, schedule: Q04DX003 (ip), vehicle: saline
  T/C: 109 % of control
[2]
  T/C: 100 % of control
dose: 75.0 mg/kg/injection, schedule: Q04DX003 (ip), vehicle: saline
  T/C: 86 % of control
[4]
  T/C: 116 % of control
dose: 100.0 mg/kg/injection, schedule: Q04DX003 (ip), vehicle: saline
  T/C: 109 % of control

## Cc1ccc(C2(C(=O)O)CCCCC2)cc1
[8]
  T/C: 100 % of control
[9]
  T/C: 109 % of control
[10]
  T/C: 92 % of control
dose: 200.0 mg/kg/injection, schedule: Q04DX003 (ip), vehicle: Klucel (hydroxypropylcellulose) (HPC)
  T/C: 104 % of control
dose: 400.0 mg/kg/injection, schedule: Q04DX003 (ip), vehicle: Klucel (hydroxypropylcellulose) (HPC)
  T/C: 100 % of control

## Cc1cc2nc(Oc3ccccc3)nc(=O)n2o1
[11]
  T/C: 100 % of control and 117 % of control
[12]
  T/C: 106 % of control and 123 % of control
[13]
  T/C: 112 % of control and 121 % of control

## CCCCCCCCS.[Ni]
dose: 100.0 mg/kg/injection, schedule: Q01DX001 (ip), vehicle: Klucel (hydroxypropylcellulose) (HPC)
  T/C: 100 % of control
[9]
  T/C: 113 % of control
[14]
  T/C: 100 % of control

## O=C1C=C(c2ccccc2)C(c2ccccc2)C(c2ccccc2)C1 (centres undefined)
[15]
  T/C: 100 % of control
[16]
  T/C: 91 % of control
[17]
  T/C: 86 % of control

## COc1ccccc1NC(=O)Nc1ccc(N(C)C)cc1
[15]
  T/C: 90 % of control
[16]
  T/C: 118 % of control
[17]
  T/C: 90 % of control

## O=C(/C=C/c1ccc(Cl)cc1Cl)c1ccc(Cl)cc1
[12]
  T/C: 104 % of control
[13]
  T/C: 104 % of control
[18]
  T/C: 100 % of control

## O=C(O)c1ccccc1C(=O)Nc1cc(Cl)ccc1Cl
dose: 50.0 mg/kg/injection, schedule: Q04DX003 (ip), vehicle: Klucel (hydroxypropylcellulose) (HPC)
  T/C: 91 % of control
[9]
  T/C: 100 % of control

## CCCCSc1ncnc2nc[nH]c12
[15]
  T/C: 104 % of control
[16]
  T/C: 100 % of control

## CC(=O)Nc1ccc(NNCc2ccccc2)c(N)c1
dose: 100.0 mg/kg/injection, schedule: Q01DX001 (ip), vehicle: saline with Tween-80
  T/C: 97 % of control
dose: 200.0 mg/kg/injection, schedule: Q01DX001 (ip), vehicle: saline with Tween-80
  T/C: 96 % of control
dose: 400.0 mg/kg/injection, schedule: Q01DX001 (ip), vehicle: saline with Tween-80
  T/C: 91 % of control

## COc1cc(N2C(N)=NC(N)=NC2(C)C)cc(OC)c1OC
dose: 6.25 mg/kg/injection, schedule: Q04DX003 (ip), vehicle: saline
  T/C: 100 % of control
dose: 12.5 mg/kg/injection, schedule: Q04DX003 (ip), vehicle: saline
  T/C: 115 % of control
[7]
  T/C: 100 % of control

## CCOC(=O)C(=O)C[n+]1cc2ccccc2cc1/C=N/O
dose: 50.0 mg/kg/injection, schedule: Q01DX001 (ip), vehicle: saline
  T/C: 100 % of control
[3]
  T/C: 100 % of control
[5]
  T/C: 100 % of control

## C1CCCC2(CCC1)OCCO2
dose: 50.0 mg/kg/injection, schedule: Q04DX003 (ip), vehicle: saline with Tween-80
  T/C: 94 % of control
[12]
  T/C: 109 % of control
[15]
  T/C: 100 % of control
[13]
  T/C: 100 % of control
[16]
  T/C: 115 % of control and 119 % of control
[18]
  T/C: 109 % of control
[17]
  T/C: 112 % of control and 120 % of control

## CC1(NC(=O)N(CCCl)N=O)CCCC1
[15]
  T/C: 272 % of control
[16]
  T/C: 90 % of control

## CCOc1ccc(NC(=S)N(C)C)cc1
[11]
  T/C: 90 % of control
[12]
  T/C: 86 % of control

## Nc1nc(N)nc(-c2ccc([N+](=O)[O-])o2)n1
[12]
  T/C: 102 % of control
[13]
  T/C: 96 % of control
[18]
  T/C: 106 % of control

## O=C(/C=C\c1ccc2c(c1)OCO2)/C=C/c1ccc2c(c1)OCO2
[8]
  T/C: 104 % of control
dose: 100.0 mg/kg/injection, schedule: Q04DX003 (ip), vehicle: saline sonified
  T/C: 100 % of control
[10]
  T/C: 100 % of control
dose: 200.0 mg/kg/injection, schedule: Q04DX003 (ip), vehicle: saline sonified
  T/C: 109 % of control
dose: 400.0 mg/kg/injection, schedule: Q01DX009 (ip), vehicle: Klucel (hydroxypropylcellulose) (HPC)
  T/C: 95 % of control
dose: 400.0 mg/kg/injection, schedule: Q04DX003 (ip), vehicle: saline sonified
  T/C: 100 % of control

## CC(C)C1=CC23CCC4C(C)(C(N)=O)CCCC4(C)C2CC1C1C(=O)OC(=O)C13 (centres undefined)
dose: 12.5 mg/kg/injection, schedule: Q01DX001 (ip), vehicle: saline with Tween-80
  T/C: 100 % of control
dose: 25.0 mg/kg/injection, schedule: Q01DX001 (ip), vehicle: saline with Tween-80
  T/C: 108 % of control
dose: 50.0 mg/kg/injection, schedule: Q01DX001 (ip), vehicle: saline with Tween-80
  T/C: 104 % of control

## CCCC1CC(C(=O)NC(C(C)Cl)C2OC(SC)C(O)C(O)C2O)N(C)C1 (centres undefined)
[2]
  T/C: 100 % of control
[4]
  T/C: 94 % of control
[6]
  T/C: 102 % of control

## COc1ccc(C=NCCN=Cc2ccc(OC)c(OC)c2)cc1OC
[12]
  T/C: 105 % of control
[15]
  T/C: 95 % of control
[13]
  T/C: 100 % of control
[16]
  T/C: 91 % of control
[18]
  T/C: 100 % of control
[17]
  T/C: 91 % of control

## CN(C)CCSC1=CC(=O)c2ccccc2C1=O
dose: 0.19 mg/kg/injection, schedule: Q01DX009 (ip), vehicle: water
  T/C: 116 % of control
dose: 0.19 mg/kg/injection, schedule: Q04DX003 (ip), vehicle: water
  T/C: 95 % of control
dose: 0.39 mg/kg/injection, schedule: Q01DX009 (ip), vehicle: water
  T/C: 109 % of control
dose: 0.39 mg/kg/injection, schedule: Q04DX003 (ip), vehicle: water
  T/C: 105 % of control
dose: 0.78 mg/kg/injection, schedule: Q01DX009 (ip), vehicle: water
  T/C: 110 % of control
dose: 0.78 mg/kg/injection, schedule: Q04DX003 (ip), vehicle: water
  T/C: 104 % of control
dose: 1.56 mg/kg/injection, schedule: Q01DX009 (ip), vehicle: water
  T/C: 109 % of control
dose: 1.56 mg/kg/injection, schedule: Q04DX003 (ip), vehicle: water
  T/C: 106 % of control
dose: 3.12 mg/kg/injection, schedule: Q04DX003 (ip), vehicle: water
  T/C: 95 % of control

## CC(/C=C/C1(C)C(C)CCC(=O)C1C)=C\Cc1c(O)c(Cl)c(C)c(C=O)c1O (centres undefined)
dose: 12.5 mg/kg/injection, schedule: Q04DX003 (ip), vehicle: saline with Tween-80
  T/C: 92 % of control
dose: 25.0 mg/kg/injection, schedule: Q04DX003 (ip), vehicle: saline with Tween-80
  T/C: 90 % of control

## Nc1nc(SCc2ccccc2)c2[nH]cnc2n1
dose: 8.0 mg/kg/injection, schedule: Q01DX010 (ip), vehicle: saline
  T/C: 90 % of control and 100 % of control
dose: 16.0 mg/kg/injection, schedule: Q01DX010 (ip), vehicle: saline
  T/C: 90 % of control and 105 % of control
dose: 32.0 mg/kg/injection, schedule: Q01DX010 (ip), vehicle: saline
  T/C: 90 % of control and 110 % of control
dose: 64.0 mg/kg/injection, schedule: Q01DX010 (ip), vehicle: saline
  T/C: 104 % of control and 120 % of control

## CN(C(=S)SSC(=S)N(C)c1ccccc1)c1ccccc1
dose: 12.5 mg/kg/injection, schedule: Q01DX009 (ip), vehicle: saline with Tween-80
  T/C: 98 % of control
dose: 25.0 mg/kg/injection, schedule: Q01DX009 (ip), vehicle: saline with Tween-80
  T/C: 99 % of control
[11]
  T/C: 100 % of control
[12]
  T/C: 92 % of control
[14]
  T/C: 91 % of control
dose: 400.0 mg/kg/injection, schedule: Q01DX001 (ip), vehicle: Klucel (hydroxypropylcellulose) (HPC)
  T/C: 95 % of control

## COC1=C2CCCCC2=[N+]2CCc3ccccc3C2C1 (centres undefined)
dose: 25.0 mg/kg/injection, schedule: Q01DX001 (ip), vehicle: saline sonified
  T/C: 100 % of control
dose: 50.0 mg/kg/injection, schedule: Q01DX001 (ip), vehicle: saline sonified
  T/C: 95 % of control
dose: 100.0 mg/kg/injection, schedule: Q01DX001 (ip), vehicle: saline sonified
  T/C: 95 % of control
